Common to all, as to type: functional
The subject of one assay is CCRF-CEM. As to the kind of experiment: Anticancer activity against Homo sapiens (human) CCRF-CEM cells assessed as cell growth promotion at 10 uM after 48 hr by SRB assay. In general terms: The SRB assay estimates cell density from bound dye.
The next assay concerns SF-539. Kind of assay: Anticancer activity against Homo sapiens (human) SF539 cells after 48 hr by SRB assay. To be noted: SF-539, 48 h.
Another assay concerns HT-29. Kind of assay: Anticancer activity against Homo sapiens (human) HT-29 cells after 48 hr by SRB assay. The following applies: HT-29, 48 h.
Another assay has as its system HCT-15. Kind of assay: Anticancer activity against Homo sapiens (human) HCT15 cells after 48 hr by SRB assay. The following applies: HCT-15, 48 h.
The subject of the next assay is HCT-116. As to the kind of experiment: Anticancer activity against Homo sapiens (human) HCT116 cells after 48 hr by SRB assay. The following applies: HCT-116, 48 h.
For a further assay, the system named is COLO 205. Kind of assay: Anticancer activity against Homo sapiens (human) COLO205 cells after 48 hr by SRB assay. The following applies: COLO 205, 48 h.
The test system of a further assay is NCI-H23. Kind of assay: Anticancer activity against Homo sapiens (human) NCI-H23 cells after 48 hr by SRB assay. To be noted: NCI-H23, 48 h.
In a further assay the test system is HOP-62. As to the kind of experiment: Anticancer activity against Homo sapiens (human) HOP62 cells after 48 hr by SRB assay. To be noted: HOP-62, 48 h.
The test system of a further assay is MOLT-4. As to the kind of experiment: Anticancer activity against Homo sapiens (human) MOLT4 cells after 48 hr by SRB assay. The following applies: MOLT-4, 48 h.
The next assay relates to K562. As to the kind of experiment: Anticancer activity against Homo sapiens (human) K562 cells after 48 hr by SRB assay. To be noted: K562, 48 h.
Another assay relates to HL-60(TB). Kind of assay: Anticancer activity against Homo sapiens (human) HL-60(TB) cells after 48 hr by SRB assay. The following applies: HL-60, 48 h.
The next assay concerns NCI-H460. As to the kind of experiment: Anticancer activity against Homo sapiens (human) NCI-H460 cells after 48 hr by SRB assay. To be noted: NCI-H460, 48 h.
Another assay relates to T47D. As to the kind of experiment: Anticancer activity against Homo sapiens (human) T47D cells after 48 hr by SRB assay.
The next assay has as its system MDA-MB-468. As to the kind of experiment: Anticancer activity against Homo sapiens (human) MDA-MB-468 cells after 48 hr by SRB assay. The following applies: MDA-MB-468, 48 h.
A further assay relates to BT-549. Kind of assay: Anticancer activity against Homo sapiens (human) BT549 cells after 48 hr by SRB assay. The following applies: BT-549, 48 h.
The next assay deals with SK-OV-3. As to the kind of experiment: Anticancer activity against Homo sapiens (human) SKOV3 cells after 48 hr by SRB assay. The following applies: SK-OV-3, 48 h.
Another assay has as its system OVCAR-5. As to the kind of experiment: Anticancer activity against Homo sapiens (human) OVCAR5 cells after 48 hr by SRB assay. To be noted: OVCAR-5, 48 h.
For the next assay, the system named is OVCAR-3. As to the kind of experiment: Anticancer activity against Homo sapiens (human) OVCAR3 cells after 48 hr by SRB assay. To be noted: OVCAR-3, 48 h.
For the next assay, the system named is OVCAR-4. As to the kind of experiment: Anticancer activity against Homo sapiens (human) OVCAR4 cells after 48 hr by SRB assay. The following applies: OVCAR-4, 48 h.
In a further assay the test system is UACC-257. Kind of assay: Anticancer activity against Homo sapiens (human) UACC257 cells after 48 hr by SRB assay. The following applies: UACC-257, 48 h.
Another assay has as its system SK-MEL-5. As to the kind of experiment: Anticancer activity against Homo sapiens (human) SK-MEL-5 cells after 48 hr by SRB assay. To be noted: SK-MEL-5, 48 h.
Another assay deals with LOX IMVI. As to the kind of experiment: Anticancer activity against Homo sapiens (human) LOXIMVI cells after 48 hr by SRB assay.
A further assay deals with Malme-3M. As to the kind of experiment: Anticancer activity against Homo sapiens (human) MALME-3M cells after 48 hr by SRB assay.
Another assay deals with U-251. As to the kind of experiment: Anticancer activity against Homo sapiens (human) U251 cells after 48 hr by SRB assay. The following applies: U-251, 48 h.
The next assay concerns SNB-19. Kind of assay: Anticancer activity against Homo sapiens (human) SNB19 cells after 48 hr by SRB assay. To be noted: SNB-19, 48 h.
The next assay concerns SNB-75. Kind of assay: Anticancer activity against Homo sapiens (human) SNB75 cells after 48 hr by SRB assay. The following applies: SNB-75, 48 h.
The subject of a further assay is TK-10. Kind of assay: Anticancer activity against Homo sapiens (human) TK10 cells after 48 hr by SRB assay. The following applies: TK-10, 48 h.
The test system of a further assay is SN12C. As to the kind of experiment: Anticancer activity against Homo sapiens (human) SN12C cells after 48 hr by SRB assay.
Another assay concerns CAKI-1. As to the kind of experiment: Anticancer activity against Homo sapiens (human) CAKI-1 cells after 48 hr by SRB assay. The following applies: CAKI-1, 48 h.
In a further assay the test system is ACHN. As to the kind of experiment: Anticancer activity against Homo sapiens (human) ACHN cells after 48 hr by SRB assay.
Another assay has as its system A498. Kind of assay: Anticancer activity against Homo sapiens (human) A498 cells after 48 hr by SRB assay. To be noted: A498, 48 h.
The mark [1] stands for this setting: read-out: LC50 (the source's name).

In general, GI50 refers to the concentration that inhibits growth by half. Usually TGI stands for the concentration giving total growth inhibition. As usually defined, the LC50 is the concentration lethal to half of the exposed cells or organisms. A low value points to greater toxicity.

The structures appear in SMILES notation. Some results are limits rather than exact numbers.

`Cc1nc(SCC(=O)Nc2nccs2)n(Nc2ccc(Cl)cc2)c1C`: in the assay with CCRF-CEM, the Activity is reported as 99.59%.
On the same count and under the same terms, the value for `COc1ccc(Nn2c(SCC(=O)Nc3nccs3)nc(C)c2C)cc1` was 100.87%.
For the compound `Cc1ccc(Nn2c(SCC(=O)Nc3nc(-c4ccccc4)cs3)nc(C)c2C)cc1`, the 50% growth inhibitory concentration (GI50) in the assay on SF-539 turned out to be 4.68 µM; in the assay on HT-29, 4.37 µM; with HCT-15 it was 5.17 µM; in the assay on HCT-116, 2.82 µM; in the assay with COLO 205, 3.98 µM; in the assay with NCI-H23, 3.42 µM. The GI50 amounted to 18.4 µM in the assay on HOP-62; 3.46 µM in the assay with MOLT-4; 3.62 µM in the assay with K562; 4.64 µM with HL-60(TB); 3.88 µM with NCI-H460; 1.85 µM in the assay on T47D. Besides, the GI50 in the assay with MDA-MB-468 came out at 1.7 µM; in the assay on BT-549, 3.18 µM; with SK-OV-3 it was 10.6 µM; in the assay on OVCAR-5, 17.2 µM; in the assay with OVCAR-3 it was 8.24 µM; with OVCAR-4 it was 2.13 µM. The GI50 with UACC-257 is 2.12 µM; in the assay with SK-MEL-5 it was 2 µM; in the assay on LOX IMVI, 3.32 µM; in the assay on Malme-3M, 2.48 µM; in the assay with U-251, 4.5 µM; with SNB-19 it was 7.49 µM. Moreover, the GI50 came to 2.81 µM in the assay with SNB-75; 18.9 µM in the assay on TK-10; 3.2 µM in the assay on SN12C; 1.86 µM with CAKI-1; 4.06 µM in the assay on ACHN; 17.4 µM in the assay on A498. Further, the LC50 (concentration killing 50% of cells) with SF-539 is more than 100 µM; in the assay with SK-MEL-5 it was 23.8 µM; in the assay on SN12C, 63 µM; in the assay with CAKI-1, 99.3 µM; in the assay with ACHN, more than 100 µM. Moreover, the TGI was 35.2 µM in the assay with SF-539; 28.2 µM with HT-29; more than 100 µM with HCT-15; 26.5 µM with HCT-116; 34.4 µM in the assay with COLO 205; more than 100 µM in the assay with NCI-H23. The TGI with MOLT-4 is more than 100 µM; in the assay on K562, more than 100 µM; in the assay on HL-60(TB), 39.1 µM; in the assay with NCI-H460, 16.5 µM; in the assay with T47D it was 10.4 µM; with MDA-MB-468 it was 6.67 µM. Besides, the concentration for total growth inhibition (TGI) is 14.1 µM in the assay on BT-549; more than 100 µM in the assay with SK-OV-3; more than 100 µM with OVCAR-5; more than 100 µM in the assay on OVCAR-3; more than 100 µM in the assay on OVCAR-4; 9.29 µM in the assay with UACC-257. Further, the TGI in the assay on SK-MEL-5 was 5.72 µM; with LOX IMVI, 19.3 µM; with Malme-3M it was 13.6 µM; with U-251, more than 100 µM; with SNB-19 it was more than 100 µM; in the assay on SNB-75, more than 100 µM. In addition, the TGI in the assay with TK-10 is more than 100 µM; with SN12C, 14.2 µM; in the assay on CAKI-1 it was 6.1 µM; in the assay with ACHN, 62.9 µM; in the assay with A498 it was more than 100 µM. The LC50 was more than 100 µM with HT-29; more than 100 µM in the assay with HCT-116; more than 100 µM with HOP-62; 83.3 µM in the assay on NCI-H460; more than 100 µM in the assay with MDA-MB-468; 94.7 µM in the assay with BT-549. The LC50 with OVCAR-5, in the assay with UACC-257, in the assay on SNB-19, with SNB-75 and in the assay with A498 was more than 100 µM each time. Besides, the CC50 with HCT-15 (setting [1]), in the assay with COLO 205 (setting [1]), with NCI-H23 (setting [1]), in the assay with K562 (setting [1]), in the assay on HL-60(TB) (setting [1]) and with T47D (setting [1]) was more than 100 µM in each case. In addition, in the assay on Malme-3M (setting [1]), the CC50 was more than 100 µM. For the same compound, the LC50 (50% lethal concentration) with MOLT-4, in the assay on SK-OV-3, in the assay with OVCAR-3, with LOX IMVI and with TK-10 was more than 100 µM throughout. Besides, the Activity in the assay on CCRF-CEM is listed as 57.71%. The LC50 (concentration killing 50% of starting cells) in the assay with OVCAR-4 is more than 100 µM. This compound returned an LC50 (lethal concentration, 50% net cell kill) with U-251 of more than 100 µM.
As to `CCOC(=O)c1csc(NC(=O)CSc2nc(C)c(C)n2Nc2ccc(C)cc2)n1`, the Activity with CCRF-CEM turned out to be 24.68%.
Turning to `Cc1nc(SCC(=O)Nc2nccs2)n(Nc2ccccc2)c1C`, the Activity with CCRF-CEM was found to be 102.19%.

These data come from ChEMBL document CHEMBL3044631, “Synthesis of 2-[4,5-dimethyl-1-(phenylamino)-1H-imidazol-2-ylthio]-N-(thiazole-2-yl)acetamide derivatives and their anticancer activities” (2013).
